Consider two molecules from patent US20040137500A1, “Novel polypeptide” (Pfizer Inc, priority 2000, published 2004).

This assay deals with PFI-020. Put plainly: FLIPR cell-based assay for agonist activation of PFI-020. Also on record: species or system human. Particulars: 10 μM; PFI-020-transfected 293 cells (HEK 293 expressing mouse Gα15); Fluo3 FLIPR. As for the experimental part: Fluorescence Imaging Plate Reader (FLIPR®) technology was employed as a means to detect activation of PFI-020 by agonists in a cell-based assay.
5×10^6 Human Embryonic Kidney (HEK) 293 cells expressing the mouse Gα15 gene (from here on called '293 cells′), were transiently transfected with 7.5 μg of PFI-020 (contained within the pcDNA4HIS-max-TOPO (Invitrogen) plasmid) vector, or vector alone, using Lipofectamine Plus® reagent (Gibco BRL) as per the manufacturer's protocol. The plasmid pcDNA4HIS-max-TOPO was used as it contains elements that up-regulate the level of gene transcription over standard pcDNA3.1 vectors. 24 hrs post-transfection, the cells were detached from the flask using Trypsin/EDTA solution (LTI) and seeded into a black sided, poly-D-lysine-treated, 96-well plate (Becton Dickinson) at 5×10^4 cells/well density. […] The FLIPR® processing involved reading the fluorescence for all samples for 2 minutes; during this time the fluorescence baseline was determined for the first 10 seconds. The desired amount of compound was then automatically transferred to the wells and the fluorescence was continuously monitored for the remainder of the time. […]
FIGS. 3, 4, 5 and 6 depict the action of various purinoceptor compounds at a concentration of 10 μM on PFI-020-transfected 293 cells, showing fluorescence intensity versus time (in seconds). […]

With `Nc1nc(Cl)nc2c1ncn2[C@@H]1O[C@H](COP(=O)([O-])OP(=O)([O-])OP(=O)([O-])[O-])[C@@H](O)[C@H]1O.[Na+].[Na+].[Na+].[Na+]` [2-chloro-ATP, 2-chloroadenosine triphosphate tetrasodium], the “activation of PFI-020 (fluorescence intensity versus time)” value was “activated”.
Next, `O=c1ccn([C@@H]2O[C@H](COP(=O)(O)OP(=O)(O)OP(=O)(O)O)[C@@H](O)[C@H]2O)c(=O)[nH]1` [UTP, Uridine triphosphate]: “activated”.
